Test results reported in ChEMBL document CHEMBL5241111, “Non-steroidal anti-inflammatory drugs: recent advances in the use of synthetic COX-2 inhibitors” (RSC Med Chem, 2022).

What was measured:
[1] = target: T1, Prostaglandin G/H synthase 2 (Homo sapiens, UniProt P35354); assay: Inhibition of human recombinant COX-2 using arachidonic acid as substrate preincubated for 5 mins followed by substrate addition and measured after 10 mins by microplate reader analysis
T1 sequence (P35354 whole entry): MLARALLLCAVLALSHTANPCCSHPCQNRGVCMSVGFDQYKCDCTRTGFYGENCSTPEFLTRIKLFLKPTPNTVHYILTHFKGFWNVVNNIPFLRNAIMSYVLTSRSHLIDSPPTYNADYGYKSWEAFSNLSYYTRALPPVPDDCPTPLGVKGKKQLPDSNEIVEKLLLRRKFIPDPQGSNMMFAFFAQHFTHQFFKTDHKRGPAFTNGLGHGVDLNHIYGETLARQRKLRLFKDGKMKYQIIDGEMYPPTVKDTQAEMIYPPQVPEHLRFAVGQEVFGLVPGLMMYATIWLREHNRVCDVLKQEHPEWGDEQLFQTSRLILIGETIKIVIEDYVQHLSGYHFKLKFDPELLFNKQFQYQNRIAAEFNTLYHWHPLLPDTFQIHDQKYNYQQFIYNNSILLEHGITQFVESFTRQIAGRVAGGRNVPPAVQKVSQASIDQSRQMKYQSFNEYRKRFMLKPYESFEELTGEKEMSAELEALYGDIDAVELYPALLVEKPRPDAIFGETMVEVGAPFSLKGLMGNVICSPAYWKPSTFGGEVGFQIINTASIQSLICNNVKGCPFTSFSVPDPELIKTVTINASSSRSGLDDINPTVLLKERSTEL

Rattus norvegicus = assay: Antiinflammatory activity against rat model of carrageenan induced paw edema assessed as inhibition of edema measured after 1 to 6 hrs relative to control; format: functional; details: time 1-6 hrs
Alpha-glucosidase = Alpha-glucosidase (Saccharomyces cerevisiae S288c, UniProt P53341+P38158+P07265); assay: Inhibition of Saccharomyces cerevisiae alpha-glucosidase using PNPG as substrate preincubated for 10 mins followed by substrate addition by spectrophotometric method; format: protein assay
[2] = target: T2, Polyunsaturated fatty acid 5-lipoxygenase (Homo sapiens, UniProt P09917); assay: Inhibition of 5-LOX (unknown origin)
T2 sequence (P09917 whole entry): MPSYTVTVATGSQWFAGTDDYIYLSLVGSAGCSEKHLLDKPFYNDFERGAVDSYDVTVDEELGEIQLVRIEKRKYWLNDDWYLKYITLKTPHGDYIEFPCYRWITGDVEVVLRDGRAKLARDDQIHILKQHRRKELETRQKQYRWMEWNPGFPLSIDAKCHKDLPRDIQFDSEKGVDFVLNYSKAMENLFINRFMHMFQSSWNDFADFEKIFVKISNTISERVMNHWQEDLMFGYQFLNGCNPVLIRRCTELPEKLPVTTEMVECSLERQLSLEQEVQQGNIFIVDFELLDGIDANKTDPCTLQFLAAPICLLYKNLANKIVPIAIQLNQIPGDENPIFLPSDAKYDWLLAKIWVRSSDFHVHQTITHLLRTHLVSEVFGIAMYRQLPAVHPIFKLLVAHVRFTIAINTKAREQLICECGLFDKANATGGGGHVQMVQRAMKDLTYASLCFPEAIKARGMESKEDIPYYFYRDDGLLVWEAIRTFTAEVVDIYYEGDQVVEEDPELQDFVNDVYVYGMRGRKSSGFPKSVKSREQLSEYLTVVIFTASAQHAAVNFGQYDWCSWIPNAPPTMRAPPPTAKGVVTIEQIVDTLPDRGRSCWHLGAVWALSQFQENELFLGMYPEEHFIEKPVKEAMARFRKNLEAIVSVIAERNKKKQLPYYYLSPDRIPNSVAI

[3] = target: T1, Prostaglandin G/H synthase 2; assay: Inhibition of human COX-2 using arachidonic acid as substrate preincubated for 10 mins followed by substrate addition and measured after 30 secs by ELISA
Dihydrofolate reductase = target: T3, Dihydrofolate reductase (Homo sapiens, UniProt P00374); assay: Inhibition of DHFR (unknown origin)
T3 sequence (P00374 whole entry): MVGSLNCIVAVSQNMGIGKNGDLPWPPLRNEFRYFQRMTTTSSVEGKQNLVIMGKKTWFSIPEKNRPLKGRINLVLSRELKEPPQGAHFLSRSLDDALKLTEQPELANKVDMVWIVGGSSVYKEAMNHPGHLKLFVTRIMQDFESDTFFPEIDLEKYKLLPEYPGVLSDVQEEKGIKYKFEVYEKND

[4] = Inhibition of soybean 5-LOX using linoleic acid as substrate preincubated for 5 mins followed by substrate addition and measured after 3 mins; set-up: species or system Glycine max
[5] = target: COX-1/COX-2 (Homo sapiens) (UniProt P35354+P23219); assay: Selectivity index, ratio of IC50 for inhibition of COX-1 (unknown origin) to IC50 for inhibition of COX-2 (unknown origin); format: protein assay
[6] = target: T1, Prostaglandin G/H synthase 2; assay: Inhibition of COX-2 (unknown origin)
[7] = target: T1, Prostaglandin G/H synthase 2; assay: Inhibition of human COX-2 using arachidonic acid as substrate incubated for 30 secs by ELISA
[8] = target: T1, Prostaglandin G/H synthase 2; assay: Inhibition of human COX-2 using arachidonic acid as substrate preincubated for 5 mins followed by substrate addition and measured after 2 mins by colorimetric assay

SMILES: CC1=NN(c2ccc(S(N)(=O)=O)cc2)C(=O)/C1=C\c1c[nH]c2ccccc12
- IC50 [1]: 0.15 µM

SMILES: COc1ccc(-c2cc(-c3ccc(F)cc3)n(-c3ccc(S(N)(=O)=O)cc3)n2)cc1
- inhibition (INH) (Rattus norvegicus): 42.1%

SMILES: CC(=O)Oc1cc2oc(-c3cccc(F)c3)cc2cc1-c1c[se]nn1
- IC50 (Alpha-glucosidase): 1.03 µM

SMILES: O=c1[nH]n2c(=O)c3ccccc3nc2/c1=C/c1ccc(Cl)cc1
- IC50 [2]: 0.6 µM
- IC50 [3]: 0.047 µM

SMILES: CC(=O)Oc1cc2oc(-c3cccc(Cl)c3)cc2cc1-c1c[se]nn1
- IC50 (Alpha-glucosidase): 1.03 µM

SMILES: COc1ccc(/C=c2\c(=O)[nH]n3c(=O)c4ccccc4nc23)cc1
- IC50 [2]: 0.6 µM
- IC50 [3]: 0.047 µM

SMILES: COc1cc(/C=C2\N=C(c3ccccc3)N(c3ccc(S(N)(=O)=O)cc3)C2=O)ccc1OC(=O)c1ccccc1
- IC50 (Dihydrofolate reductase): 0.28 µM

SMILES: COc1ccc2cc([C@H](C)C(=O)N[C@@H](Cc3ccc(O)cc3)C(=O)N/C(=C\c3ccccc3)C(=O)O)ccc2c1
- IC50 [4]: 48.9 µM

SMILES: NS(=O)(=O)c1ccc(N2C(=O)/C(=C/c3ccc(OC(=O)c4ccccc4)cc3)N=C2c2ccccc2)cc1
- IC50 (Dihydrofolate reductase): 0.28 µM

SMILES: Cc1c(C(=O)NNC(=S)Nc2ccccc2)nnn1-c1ccc(S(N)(=O)=O)cc1
- Ratio IC50 [5]: 1.95
- IC50 [6]: 2.61 µM

SMILES: CCOc1cc(/C=C2\C(=O)N(c3ccc(S(N)(=O)=O)cc3)N=C2C)ccc1O
- IC50 [1]: 0.15 µM

SMILES: COc1cc(/C=C2\C(=O)N(c3ccc(S(N)(=O)=O)cc3)N=C2C)ccc1OCC#N
- IC50 [1]: 0.15 µM

SMILES: CS(=O)(=O)c1ccc(C(=O)OCCn2cc(-c3ccc(C(F)(F)F)cc3)nn2)cc1
- Ratio IC50 [5]: 0.008
- IC50 [7]: 0.002 µM

SMILES: O=c1[nH]n2c(=O)c3ccccc3nc2/c1=C/c1ccccc1F
- IC50 [2]: 0.6 µM
- IC50 [3]: 0.047 µM

SMILES: CS(=O)(=O)c1ccc(-c2nn(-c3ccc(S(N)(=O)=O)cc3)cc2C=O)cc1
- Ratio IC50 [5]: 0.008
- IC50 [7]: 0.017 µM

SMILES: COc1ccc2cc([C@H](C)C(=O)O)ccc2c1 [NAPROXEN]
- IC50 [4]: 22 µM

SMILES: COc1cc(/C=C2\N=C(c3ccccc3)N(c3ccc(C(=O)O)cc3)C2=O)ccc1OC(=O)c1ccccc1
- IC50 (Dihydrofolate reductase): 0.28 µM

SMILES: Cc1c(C(=O)/C=C/c2ccccc2)nnn1-c1ccc(S(N)(=O)=O)cc1
- Ratio IC50 [5]: 1.95
- IC50 [6]: 2.61 µM

SMILES: C/C=C(\NC(=O)[C@H](Cc1c[nH]c2ccccc12)NC(=O)[C@@H](C)c1ccc2cc(OC)ccc2c1)C(=O)OC
- IC50 [4]: 48.9 µM

SMILES: C/C(=N\NC(=O)c1nnn(-c2ccc(S(N)(=O)=O)cc2)c1C)c1nnn(-c2ccc(S(N)(=O)=O)cc2)c1C
- Ratio IC50 [5]: 1.95
- IC50 [6]: 2.61 µM

SMILES: COc1ccc2cc([C@H](C)C(=O)N[C@@H](C)C(=O)N/C(=C\c3ccccc3)C(=O)O)ccc2c1
- IC50 [4]: 48.9 µM

SMILES: O=Cc1cn(-c2ccc(Br)cc2)nc1-c1ccc(Br)cc1
- Ratio IC50 [5]: 0.008
- IC50 [7]: 0.017 µM

SMILES: CCCCCC1C(C)=c2c(OCc3nnc(SCC(=O)N4CCN(c5ccccc5)CC4)o3)nn(C)c(=O)c2=C1C (stereo not drawn)
- IC50 [8]: 6.8 µM

SMILES: CS(=O)(=O)c1ccc(-n2cc(-c3ccc(C(F)(F)F)cc3)nn2)cc1
- Ratio IC50 [5]: 0.008
- IC50 [7]: 0.226 µM

SMILES: CC1=NN(c2ccc(S(N)(=O)=O)cc2)C(=O)/C1=C\c1cccc(OCc2ccccc2)c1
- IC50 [1]: 0.15 µM

SMILES: CC1=c2c(OCc3nnc(SCC(=O)N4CCN(c5ccccc5)CC4)o3)nn(C)c(=O)c2=C(C)C1c1ccccc1 (stereo not drawn)
- IC50 [8]: 6.8 µM

SMILES: O=c1[nH]n2c(=O)c3ccccc3nc2/c1=C/c1ccc(Br)cc1
- IC50 [2]: 0.6 µM
- IC50 [3]: 0.047 µM

SMILES: COc1ccc(/C=c2\c(=O)[nH]n3c(=O)c4ccccc4nc23)cc1OC
- IC50 [2]: 0.6 µM
- IC50 [3]: 0.047 µM

SMILES: CC(=O)Oc1cc2oc(-c3ccc(C)cc3)cc2cc1-c1c[se]nn1
- IC50 (Alpha-glucosidase): 1.03 µM

SMILES: O=c1[nH]n2c(=O)c3ccccc3nc2/c1=C/c1ccc(F)cc1
- IC50 [2]: 0.6 µM
- IC50 [3]: 0.047 µM
